Laboratory results published in the NIST ThermoML archive (doi:10.1016/j.fluid.2008.03.004).

Assay: xn = mol fraction of the nth substance listed
Details: 101 kPa, Liquid; for speed of sound: Sing-around technique in a fixed-path interferometer

Cc1cccc(C)c1 [1,3-dimethylbenzene] + COC(C)(C)C
Details	mass density [kg/m3]	speed of sound [m/s]
288.15 K, x2 = 0	868.459	1362.7
288.15 K, x2 = 0.047	863.235	1350.6
288.15 K, x2 = 0.115	855.522	1332.6
288.15 K, x2 = 0.212	844.315	1306.8
288.15 K, x2 = 0.304	833.627	1282.4
288.15 K, x2 = 0.399	822.223	1256.5
288.15 K, x2 = 0.5	809.928	1228.3
288.15 K, x2 = 0.601	797.423	1200.9
288.15 K, x2 = 0.651	791.063	1185.3
288.15 K, x2 = 0.794	772.47	1143.4
288.15 K, x2 = 0.898	758.81	1113.2
288.15 K, x2 = 0.954	751.317	1097.5
290.65 K, x2 = 0	866.318	1352.1
290.65 K, x2 = 0.047	861.081	1340.1
290.65 K, x2 = 0.115	853.297	1322.5
290.65 K, x2 = 0.212	842.102	1296.1
290.65 K, x2 = 0.304	831.375	1271.5
290.65 K, x2 = 0.399	819.939	1245.6
290.65 K, x2 = 0.5	807.6	1217.4
290.65 K, x2 = 0.601	795.051	1189.7
290.65 K, x2 = 0.651	788.663	1173.8
290.65 K, x2 = 0.794	769.999	1132
290.65 K, x2 = 0.898	756.279	1101.5
290.65 K, x2 = 0.954	748.754	1085.7
293.15 K, x2 = 0	864.177	1341.7
293.15 K, x2 = 0.047	858.922	1329.7
293.15 K, x2 = 0.115	851.118	1312
293.15 K, x2 = 0.212	839.887	1285.5
293.15 K, x2 = 0.304	829.126	1260.8
293.15 K, x2 = 0.399	817.65	1234.7
293.15 K, x2 = 0.5	805.27	1206.5
293.15 K, x2 = 0.601	792.671	1178.5
293.15 K, x2 = 0.651	786.26	1162.6
293.15 K, x2 = 0.794	767.519	1120.7
293.15 K, x2 = 0.898	753.738	1090
293.15 K, x2 = 0.954	746.179	1074.1
295.65 K, x2 = 0	862.035	1331.3
295.65 K, x2 = 0.047	856.763	1319
295.65 K, x2 = 0.115	848.935	1301.5
295.65 K, x2 = 0.212	837.67	1274.9
295.65 K, x2 = 0.304	826.872	1250.1
295.65 K, x2 = 0.399	815.358	1223.9
295.65 K, x2 = 0.5	802.93	1195.6
295.65 K, x2 = 0.601	790.285	1167.3
295.65 K, x2 = 0.651	783.85	1151.5
295.65 K, x2 = 0.794	765.033	1109.4
295.65 K, x2 = 0.898	751.19	1078.5
295.65 K, x2 = 0.954	743.594	1062.5
298.15 K, x2 = 0	859.89	1320.9
298.15 K, x2 = 0.047	854.604	1308.8
298.15 K, x2 = 0.115	846.749	1291
298.15 K, x2 = 0.212	835.447	1264.3
298.15 K, x2 = 0.304	824.615	1239.4
298.15 K, x2 = 0.399	813.059	1213.1
298.15 K, x2 = 0.5	800.588	1184.7
298.15 K, x2 = 0.601	787.899	1156
298.15 K, x2 = 0.651	781.433	1140.4
298.15 K, x2 = 0.794	762.537	1098.1
298.15 K, x2 = 0.898	748.629	1066.9
298.15 K, x2 = 0.954	740.997	1050.9
300.65 K, x2 = 0	857.742	1310.6
300.65 K, x2 = 0.047	852.439	1298.5
300.65 K, x2 = 0.115	844.562	1280.5
300.65 K, x2 = 0.212	833.221	1253.8
300.65 K, x2 = 0.304	822.354	1228.8
300.65 K, x2 = 0.399	810.758	1202.3
300.65 K, x2 = 0.5	798.24	1173.9
300.65 K, x2 = 0.601	785.504	1144.9
300.65 K, x2 = 0.651	779.011	1129.3
300.65 K, x2 = 0.794	760.033	1086.9
300.65 K, x2 = 0.898	746.061	1055.5
300.65 K, x2 = 0.954	738.393	1039.4
303.15 K, x2 = 0	855.593	1300.3
303.15 K, x2 = 0.047	850.273	1288.1
303.15 K, x2 = 0.115	842.425	1270
303.15 K, x2 = 0.212	830.994	1243.3
303.15 K, x2 = 0.304	820.086	1218.2
303.15 K, x2 = 0.399	808.453	1191.6
303.15 K, x2 = 0.5	795.888	1163.1
303.15 K, x2 = 0.601	783.103	1133.8
303.15 K, x2 = 0.651	776.58	1118.3
303.15 K, x2 = 0.794	757.521	1075.7
303.15 K, x2 = 0.898	743.481	1044
303.15 K, x2 = 0.954	735.774	1027.8
305.65 K, x2 = 0	–	1290
305.65 K, x2 = 0.047	–	1277.8
305.65 K, x2 = 0.115	–	1259.7
305.65 K, x2 = 0.212	–	1232.9
305.65 K, x2 = 0.304	–	1207.7
305.65 K, x2 = 0.399	–	1180.9
305.65 K, x2 = 0.5	–	1152.3
305.65 K, x2 = 0.601	–	1122.8
305.65 K, x2 = 0.651	–	1107.3
305.65 K, x2 = 0.794	–	1064.7
305.65 K, x2 = 0.898	–	1032.7
305.65 K, x2 = 0.954	–	1016.3
